Results taken from patent publication US10471028B2, “Small molecule efflux pump inhibitors” (UNIVERSITY OF ROCHESTER, priority 2014, dated 2019).

These molecules were tested on A. baumannii strain 98-37-09 (assay: MEC determination: potentiation of minocycline toward serum grown A. baumannii). Conditions: 1×MEC of compound plus minocycline in serum, versus minocycline alone; plating.
Type: cell-based, Acinetobacter baumannii
Method: The TimTec ActiProbe-25K diversity-set and Natural Product compound libraries (29,900 compounds total; TimTec, Newark, Del.) were initially screened for putative efflux pump inhibitors by identifying compounds that potentiated the antimicrobial property of a sub-inhibitory concentration of minocycline toward A. baumannii grown in human serum. To do so, A. baumannii strain 98-37-09 was grown for 16 hours in LB medium at 37° C. on a rotary shaker at 225 rpm. Approximately 1×10^5 CFU were then transferred to individual wells of a 96-well round-bottom plate (Corning Costar, Tewksbury, Mass.) containing 100 μL of human serum supplemented with of minocycline (0.5 μg mL^−1; 0.5× minimum inhibitory concentration in serum) and individual members of the Timtec ActiProbe or Natural product library (50 μM). Plates were then incubated at 37° C. for 48 hours. Growth was measured as a function of turbidity. Putative efflux pump inhibitors were identified as compounds that inhibited A. baumannii growth in human serum containing minocycline and were subsequently retested in triplicate, as indicated above. Untreated A. baumannii grown in serum supplemented with minocycline+/−PAβN served as positive and negative controls, respectively. […] Repeat testing in which well constituents were serial diluted and plated on LB agar plates validated that 85 compounds did indeed limit A. baumannii growth in serum supplemented with minocycline, reducing the number of viable colony forming units between 2-6 log cfu in comparison to minocycline alone treated cells.
The MEC was defined as the lowest concentration of test compound required to inhibit the growth of A. baumannii in serum in the presence of 0.5 μg ml^−1 minocycline. Plating confirmed that addition of 1×MEC of each compound elicited ≥1.9-log reduction in A. baumannii cells grown in serum supplemented with minocycline alone (see Table 1).
In the case of `COc1ccc(/C=N/c2ccc(S(N)(=O)=O)cc2)c(OC)c1` [ST016442], the “Log-reduction Colony Forming Units (ml^−1)” value is reported as 3.88 log. With `COc1ccc(OC)c(/C=N/c2ccc(S(N)(=O)=O)cc2)c1` [ST016443] the “Log-reduction Colony Forming Units (ml^−1)” value was 2.00 log. `CCc1ccc(/C=N/c2ccc(S(N)(=O)=O)cc2)cc1` [ST016444] was tested, and the “Log-reduction Colony Forming Units (ml^−1)” value was 4.86 log. With `COc1ccc(O)c(/C=N/N=C/c2cc(OC)ccc2O)c1` [ST020959] the “Log-reduction Colony Forming Units (ml^−1)” value was 6.90 log. With `Cc1nnc(SCC2=C(C(=O)[O-])N3C(=O)[C@@H](NC(=O)Cn4cnnn4)[C@H]3SC2)s1.[Na+]` [ST024775] the “Log-reduction Colony Forming Units (ml^−1)” value was 4.84 log. With `CCOC(=O)/C=C/C(=O)Nc1ccc(S(=O)(=O)Nc2nccs2)cc1` [ST026450] the “Log-reduction Colony Forming Units (ml^−1)” value was 5.37 log. `CCOC(=O)/C=C/C(=O)Nc1ccc(S(N)(=O)=O)cc1` [ST026465] was tested, and the “Log-reduction Colony Forming Units (ml^−1)” value was 6.36 log. With `O=C(c1ccc(Cl)cc1Cl)n1cc([N+](=O)[O-])cn1` [ST033231] the “Log-reduction Colony Forming Units (ml^−1)” value was 1.91 log. With `COc1cc(/C=N/NC(=O)c2sc3ccccc3c2Cl)cc(OC)c1OC` [ST033346] the “Log-reduction Colony Forming Units (ml^−1)” value was 2.00 log. For `CC(=O)NS(=O)(=O)c1ccc(N)cc1` [ST040724], the “Log-reduction Colony Forming Units (ml^−1)” value was 4.08 log.

Same assay, conditions: lowest concentration inhibiting growth in 100% human serum with 0.5 μg ml^−1 minocycline, 48 hr
Molecule `COc1ccc(/C=N/c2ccc(S(N)(=O)=O)cc2)c(OC)c1` [ST016442] has an MEC of 2 µg/mL. Molecule `COc1ccc(OC)c(/C=N/c2ccc(S(N)(=O)=O)cc2)c1` [ST016443] has an MEC of 2 µg/mL. With `CCc1ccc(/C=N/c2ccc(S(N)(=O)=O)cc2)cc1` [ST016444] the MEC was 16 µg/mL. With `COc1ccc(O)c(/C=N/N=C/c2cc(OC)ccc2O)c1` [ST020959] the MEC was 2 µg/mL. In the case of `Cc1nnc(SCC2=C(C(=O)[O-])N3C(=O)[C@@H](NC(=O)Cn4cnnn4)[C@H]3SC2)s1.[Na+]` [ST024775], the MEC is reported as 16 µg/mL. Work on `CCOC(=O)/C=C/C(=O)Nc1ccc(S(=O)(=O)Nc2nccs2)cc1` [ST026450] yielded an MEC of 32 µg/mL. `CCOC(=O)/C=C/C(=O)Nc1ccc(S(N)(=O)=O)cc1` [ST026465] gave an MEC of 32 µg/mL. Work on `O=C(c1ccc(Cl)cc1Cl)n1cc([N+](=O)[O-])cn1` [ST033231] yielded an MEC of 32 µg/mL. Molecule `COc1cc(/C=N/NC(=O)c2sc3ccccc3c2Cl)cc(OC)c1OC` [ST033346] has an MEC of 2 µg/mL. Work on `CC(=O)NS(=O)(=O)c1ccc(N)cc1` [ST040724] yielded an MEC of 64 µg/mL.

These molecules were tested on A. baumannii strain 98-37-09 (assay: Potentiation of ciprofloxacin toward serum grown A. baumannii). Conditions: 100% human serum, 0.125 μg ml^−1 ciprofloxacin, 1× or 2× MEC, 48 hour, growth inhibition.
Type: cell-based, Acinetobacter baumannii
Excerpt: As a means to further prioritize non-toxic compounds of interest based on their therapeutic promise, it was considered that broad spectrum antimicrobial efflux pump inhibitors may be more clinically valuable than narrow-spectrum agents that only potentiate the activity of a limited number of antibiotics or that display activity toward a single bacterial species. […] To do so, 1×10^5 A. baumannii strain 98-37-09 were inoculated into individual wells of microtiter plates containing 100% human serum supplemented with 0.125 μg ml^−1 ciprofloxacin and 0, 1×, or 2× the compound's MEC, as defined by the lowest concentration needed to potentiated minocycline's antimicrobial effects (above). Plates were incubated for 48 hour at which point each compound's ability to potentiate ciprofloxacin was measured, as growth inhibition.
In the case of `CCOC(=O)/C=C/C(=O)Nc1ccc(S(=O)(=O)Nc2nccs2)cc1` [ST026450], the “Potentiate Ciprofloxacin A. baumannii” value is reported as “No”. `CCOC(=O)/C=C/C(=O)Nc1ccc(S(N)(=O)=O)cc1` [ST026465] was tested, and the “Potentiate Ciprofloxacin A. baumannii” value was “No”. With `CC(=O)NS(=O)(=O)c1ccc(N)cc1` [ST040724] the “Potentiate Ciprofloxacin A. baumannii” value was “No”.

Each molecule was assayed on A. baumannii strain 98-37-09 (assay: Cellular accumulation of minocycline (HPLC, triple-quadrupole MS)). Conditions: growth in serum (efflux active conditions), minocycline without efflux inhibitor.
Type: cell-based, Acinetobacter baumannii
Method: High pressure liquid chromatography and triple-quadrupole mass spectrometry were used to measure the A. baumannii intracellular levels of minocycline during growth in human serum in the absence and presence of each putative efflux pump inhibitor. […] Cultures were incubated for 48 hours with shaking, at which point an aliquot was removed, serially diluted, and plated to determine the number of viable CFU per mixture. The remainder of the cells were pelleted by centrifugation at 900×g at 4° C., washed twice in PBS, mechanically lysed with a FastPrep cell disrupter (MP Biomedicals, Santa Ana, Calif.) for 20 seconds at 5 m s^−1 and the cellular debris was pelleted via centrifugation at 900×g and 4° C. The amount of minocycline present within the supernatant of ruptured cells was measured. Briefly, doxycycline (0.5 μg mL^−1) was first added to each supernatant to serve as an internal control to account for sample-to-sample preparation variability. The supernatant was then combined with acetonitrile (ACN) at a 1:10 ratio and centrifuged at 16,000×g, at 4° C., to collect minocycline and doxycycline. […] residual liquid was evaporated in a speed vacuum for 2 hours at 8,000×g. To quantify the amount of antibiotics retained, sample materials were suspended in 50% acetonitrile, filtered through a 0.2 μm low protein binding hydrophilic membrane (Millipore, Billerica, Mass.) then separated on Shimadzu high performance liquid chromatography instrument (Fisher Scientific) using a BetaBasic C18 reverse phase column (Thermo Scientific). Separation was carried out with two mobile phase solutions consisting of solution (A) water with 0.1% formic acid and solution (B) 100% ACN. The gradient profile of the chromatography runs was as follows: from 0 to 0.1 min 8% solution B, ramp step wise (37% to 60% solution B) from 0.1 to 6.5 min then holding for one minute before ramping down from 60% to 10% from 7.5 to 8 min. This was followed a hold at 10% solution B for one minute. […] The column was equilibrated in 8% solution B at 40° C. and the flow rate was set to 0.2 mL min^−1. Mass spectrometry analysis of fractions was carried out using a Thermo TSQ Quantum Ultra triple quadrupole mass spectrometer (Fisher Scientific). Data were analyzed using Xcalibur software (Thermo Scientific); the following parameters were used to detect minocycline and the internal control doxycycline: 458.208 m/z→282.971 m/z (collision energy=43, tube lens=119) for minocycline and 445.144 m/z→266.900 m/z (collision energy=39, tube lens=127) for doxycycline. Analysis of the raw data was conducted by using the area under the curve calculations with the Genesis algorithm to determine the concentration in each sample. The difference between the peak intensity and the y intercept of pre-established minocycline and doxycycline standard curves was divided by the slope of the standard curve to quantify the amount of minocycline within each sample. The total concentration of minocycline within each cell was calculated by normalizing to the number of cells within each corresponding culture.
In the case of `CN(C)c1ccc(O)c2c1C[C@H]1C[C@H]3[C@H](N(C)C)C(O)=C(C(N)=O)C(=O)[C@@]3(O)C(O)=C1C2=O` [minocycline, reference compound], the cellular minocycline concentration is reported as 1.58×10^−10 femtomoles per bacterial cell.

Same assay, conditions: human serum with 0.5 μg mL^−1 minocycline plus test compound (0.5×MEC, 1×MEC), 48 hours
`COc1ccc(/C=N/c2ccc(S(N)(=O)=O)cc2)c(OC)c1` [ST016442] was tested, and the “Minocylcine Per Cell (femtomoles cell^−1)” value (shortened to “Minocylcine Per Cell”) was 1.96E−04 femtomoles cell^−1. With `COc1ccc(OC)c(/C=N/c2ccc(S(N)(=O)=O)cc2)c1` [ST016443] the “Minocylcine Per Cell” value was 4.4E−04 femtomoles cell^−1. With `CCc1ccc(/C=N/c2ccc(S(N)(=O)=O)cc2)cc1` [ST016444] the “Minocylcine Per Cell” value was 2.02E−05 femtomoles cell^−1. `COc1ccc(O)c(/C=N/N=C/c2cc(OC)ccc2O)c1` [ST020959] was tested, and the “Minocylcine Per Cell” value was 1.27E−04 femtomoles cell^−1. For `Cc1nnc(SCC2=C(C(=O)[O-])N3C(=O)[C@@H](NC(=O)Cn4cnnn4)[C@H]3SC2)s1.[Na+]` [ST024775], the “Minocylcine Per Cell” value was 1.72E−05 femtomoles cell^−1. In the case of `CCOC(=O)/C=C/C(=O)Nc1ccc(S(=O)(=O)Nc2nccs2)cc1` [ST026450], the “Minocylcine Per Cell” value is reported as 2.35E−06 femtomoles cell^−1. For `CCOC(=O)/C=C/C(=O)Nc1ccc(S(N)(=O)=O)cc1` [ST026465], the “Minocylcine Per Cell” value was 3.82E−04 femtomoles cell^−1. With `O=C(c1ccc(Cl)cc1Cl)n1cc([N+](=O)[O-])cn1` [ST033231] the “Minocylcine Per Cell” value was 3.42E−06 femtomoles cell^−1. `COc1cc(/C=N/NC(=O)c2sc3ccccc3c2Cl)cc(OC)c1OC` [ST033346] was tested, and the “Minocylcine Per Cell” value was 3.615E−07 femtomoles cell^−1. With `CC(=O)NS(=O)(=O)c1ccc(N)cc1` [ST040724] the “Minocylcine Per Cell” value was 1.45E−04 femtomoles cell^−1.

These molecules were tested on human HepG2 cells (assay: MTT cell viability (cytotoxicity) assay). Conditions: not given.
Method: To distinguish putatively non-toxic from human cytotoxic compounds, conventional 3-(4,5-dimethylthiazol-2yl)-2,5-diphenyltetrazolium bromide (MTT) cell viability assays (American Type Culture Collection, Manassas, Va.) were performed for each compound of interest at 1× and 4× their MEC. Briefly, human HepG2 cells were grown to approximately 1×10^6 cells per well in Dulbecco's Modified Eagle Media supplemented with 10% fetal bovine serum (Invitrogen, Carlsbad, Calif.) then treated with 1× or 4× the MEC of the indicated […] Cell viability was measured following the addition of the tetrazolium salt (MTT) as per the manufacturer's recommendations; cells challenged with 50 ug ml^−1 Mitomycin C (Sigma Aldrich) and mock-treated cells served as positive and negative controls, respectively.
`COc1ccc(/C=N/c2ccc(S(N)(=O)=O)cc2)c(OC)c1` [ST016442] was tested, and the “% Viability” value was 53.43%. `COc1ccc(OC)c(/C=N/c2ccc(S(N)(=O)=O)cc2)c1` [ST016443] was tested, and the “% Viability” value was 57.49%. With `CCc1ccc(/C=N/c2ccc(S(N)(=O)=O)cc2)cc1` [ST016444] the “% Viability” value was 53.92%. In the case of `O=C(c1ccc(Cl)cc1Cl)n1cc([N+](=O)[O-])cn1` [ST033231], the “% Viability” value is reported as 70.87%. For `COc1cc(/C=N/NC(=O)c2sc3ccccc3c2Cl)cc(OC)c1OC` [ST033346], the “% Viability” value was 74.67%.

Same assay, conditions: HepG2 cellular survival at 4×MEC
In the case of `Cc1nnc(SCC2=C(C(=O)[O-])N3C(=O)[C@@H](NC(=O)Cn4cnnn4)[C@H]3SC2)s1.[Na+]` [ST024775], the “% Viability” value is reported as 41.62%.

Same assay, conditions: human, 48 h, 4 ×MEC
For `COc1ccc(O)c(/C=N/N=C/c2cc(OC)ccc2O)c1` [ST020959], the “% Viability” value was 51.04%. `CCOC(=O)/C=C/C(=O)Nc1ccc(S(=O)(=O)Nc2nccs2)cc1` [ST026450] was tested, and the “% Viability” value was 100%. In the case of `CCOC(=O)/C=C/C(=O)Nc1ccc(S(N)(=O)=O)cc1` [ST026465], the “% Viability” value is reported as 100%.

Same assay, conditions: minocycline tested alone at 2 μg ml^−1
`CN(C)c1ccc(O)c2c1C[C@H]1C[C@H]3[C@H](N(C)C)C(O)=C(C(N)=O)C(=O)[C@@]3(O)C(O)=C1C2=O` [minocycline, reference compound] showed a HepG2 survival of 77.9%.
